Source: patent US8759386B2, “Pyrazole compounds as CRTH2 antagonists” (Boehringer Ingelheim International GmbH, priority 2011, dated 2014)

Each compound was assayed against human CRTH2 receptor (Homo sapiens (Human), UniProt Q9Y5Y4) (assay: CRTH2 receptor radioligand binding assay (SPA, [3H]-PGD2, CHO-K1-hCRTH2 cell membranes)). Settings: Table 1, compounds of formula Ia″; displacement of [3H]-PGD2 from CHO-K1-hCRTH2 membranes.
Description: Preparation of Human CRTH2 Receptor Membranes and Radioligand Binding Assay
The binding of CRTH2 antagonists is determined using membranes prepared from Chinese hamster ovary cells (CHO-K1 cells) transfected with the human CRTH2 receptor (CHO-K1-hCRTH2 cells, Perkin Elmer, Cat No ES-561-C). To produce cell membranes the CHO-K1-hCRTH2 cells are cultured in suspension in CHO SFMII medium supplemented with 400 μg/mL G418. The cells are harvested by centrifugation at 300 g for 10 min at room temperature. The cell pellet is resuspended in Phosphate Buffer Saline (PBS) including a protease inhibitor mix (Complete, Roche) and adjusted to a concentration of 10E7 cells/mL. The CHO-K1-hCRTH2 cells are disrupted by nitrogen […] to obtain the membrane preparation. Cell debris is removed by centrifugation (500 g at 4° C., 30 min) and the supernatant is transferred into fresh tubes followed by a second centrifugation at 40000 g for 1 hour at 4° C. to sediment the membranes. The membranes are suspended in SPA incubation buffer (50 mM Tris HCl, 10 mM MgCl2, 150 mM NaCl, 1 mM EDTA, pH 7.4) without bovine serum albumin, homogenized by passing through a single use needle (Terumo, 23G×1″), and stored in aliquots at −80° C.
The CRTH2 receptor binding assay is performed in a scintillation proximity assay (SPA) format with the radioligand [^3H]-PGD2 (Perkin Elmer, NET616000MC). CHO-K1-hCRTH2 cell membranes are again homogenized by passing through a single use needle (Terumo, 23G×1″) and diluted in SPA incubation buffer in suitable concentrations (0.5-10 μg protein/well). The SPA assay is set up in 96 well microtiter plates (Perkin Elmer, Cat No. 6005040) in SPA incubation buffer with a final volume of 200 μL per well and final concentration of 50 mM Tris-HCl, 10 mM MgCl2, 150 mM NaCl, 1 mM EDTA pH 7.4, 0.1% bovine serum albumin). The SPA assay mixture contains 60 μl of the membrane suspension, 80 μL of Wheat Germ Agglutinin coated PVT beads (GE Healthcare, RPNQ-0001, 0.3 mg/well), 40 μL of [^3H]-PGD2 diluted in SPA buffer to a final concentration of 1 nM (50 000 dpm) and 20 μL of the test compound (dissolved in dimethylsulfoxide). The SPA assay mixture is incubated for 3 h at room temperature. Bound radioactivity is determined with a scintillation counter (Micro Beta Trilux, Wallac). The binding of [^3H]-PGD2 to CHO-K1-hCRTH2 cell membranes is determined in the absence (total binding, Bo) and presence (non-specific binding, NSB) of unlabelled PGD2 (1 μM, Cayman Chemical, Cat No 12010) or a reference CRTH2 antagonist (10 μM CAY10471, Cayman Chemical, Cat No 10006735). Determination of the affinity of a test compound is calculated by subtraction of the non-specific binding (NSB) from the total binding (Bo) or the binding in the presence of the test compound (B) at a given compound concentration. The NSB value is set to 100% inhibition. The Bo-NSB value is set to 0% inhibition.
% inhibition values were obtained at a defined compound concentration, e.g. at 1 μM, % inhibition of the test compound was calculated by the formula 100−((B−NSB)*100/(Bo−NSB)). % inhibition values above 100% are founded by assay variance.

Chain of human CRTH2 receptor (Q9Y5Y4 whole entry): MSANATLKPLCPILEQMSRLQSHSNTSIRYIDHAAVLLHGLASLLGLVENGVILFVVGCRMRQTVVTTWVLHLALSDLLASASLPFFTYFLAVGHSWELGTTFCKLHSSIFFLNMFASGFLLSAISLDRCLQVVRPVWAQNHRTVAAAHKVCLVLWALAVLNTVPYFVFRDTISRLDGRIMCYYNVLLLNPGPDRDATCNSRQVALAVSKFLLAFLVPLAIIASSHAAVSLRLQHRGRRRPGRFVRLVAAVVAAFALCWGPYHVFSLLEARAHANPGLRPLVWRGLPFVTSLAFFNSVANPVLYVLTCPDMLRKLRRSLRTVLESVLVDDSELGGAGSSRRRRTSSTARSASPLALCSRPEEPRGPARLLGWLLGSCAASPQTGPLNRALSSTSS

| SMILES | Ki [nM] |
| --- | --- |
| Cc1nn(Cc2ccc(NC(=O)c3oc4ccc(Cl)cc4c3C)cc2F)c(C)c1CC(=O)O [Compound 44] | 0.3 |
| CCc1nn(Cc2ccc(NC(=O)c3cc4ccccc4[nH]3)cc2)c(CC)c1CC(=O)O [Compound 20] | 0.3 |
| CCn1c(C(=O)Nc2ccc(Cn3nc(C)c(CC(=O)O)c3C)cc2)cc2ccc(F)cc21 [Compound 29] | 0.1 |
| Cc1nn(Cc2ccc(NC(=O)c3oc4c(Cl)cccc4c3C)cc2F)c(C)c1CC(=O)O [Compound 37] | 2.2 |
| CCCCn1c(C(=O)Nc2ccc(Cn3nc(C)c(CC(=O)O)c3C)c(F)c2)cc2ccccc21 [Compound 53] | 0.2 |
| CCCn1c(C(=O)Nc2ccc(Cn3nc(C)c(CC(=O)O)c3C)cc2)cc2ccc(F)cc21 [Compound 28] | 0.1 |
| Cc1nn(Cc2ccc(NC(=O)c3cc4ccc(Cl)cc4o3)cc2)c(C)c1CC(=O)O [Compound 36] | 0.2 |
| COc1ccc2[nH]c(C(=O)Nc3ccc(Cn4nc(C)c(CC(=O)O)c4C)cc3)c(C)c2c1 [Compound 14] | 0.1 |
| Cc1nn(Cc2ccc(NC(=O)c3cc4ccccc4n3Cc3ccccc3)cc2F)c(C)c1CC(=O)O [Compound 3] | 0.2 |
| Cc1nn(Cc2ccc(NC(=O)c3cc4ccccc4s3)cc2)c(C)c1CC(=O)O [Compound 15] | 0.3 |
| CCc1nn(Cc2ccc(NC(=O)c3cc4cc(F)ccc4[nH]3)cc2)c(CC)c1CC(=O)O [Compound 23] | 0.3 |
| CCCn1c(C(=O)Nc2ccc(Cn3nc(C)c(CC(=O)O)c3C)c(F)c2)cc2ccccc21 [Compound 56] | 0.2 |
| Cc1nn(Cc2ccc(NC(=O)c3cc4cc(F)ccc4[nH]3)cc2)c(C)c1CC(=O)O [Compound 12] | 0.2 |
| Cc1nn(Cc2ccc(NC(=O)c3sc4ccc(F)cc4c3C)cc2F)c(C)c1CC(=O)O [Compound 46] | 4.5 |
| CCc1nn(Cc2ccc(NC(=O)c3cc4cc(Cl)ccc4o3)cc2)c(CC)c1CC(=O)O [Compound 19] | 0.2 |
| Cc1nn(Cc2ccc(NC(=O)c3cc4ccc(F)cc4[nH]3)cc2)c(C)c1CC(=O)O [Compound 11] | 0.2 |
| Cc1nn(Cc2ccc(NC(=O)c3cc4ccccc4[nH]3)cc2Cl)c(C)c1CC(=O)O [Compound 2] | 0.5 |
| CCn1c(C(=O)Nc2ccc(Cn3nc(C)c(CC(=O)O)c3C)cc2)cc2ccccc21 [Compound 17] | 0.4 |
| COc1cccc2cc(C(=O)Nc3ccc(Cn4nc(C)c(CC(=O)O)c4C)cc3)oc12 [Compound 9] | 1.2 |
| CCc1c(C(=O)Nc2ccc(Cn3nc(C)c(CC(=O)O)c3C)c(F)c2)oc2ccc(F)cc12 [Compound 47] | 0.9 |
| CCc1nn(Cc2ccc(NC(=O)c3cc4ccc(F)cc4[nH]3)cc2)c(CC)c1CC(=O)O [Compound 25] | 0.2 |
| CCc1nn(Cc2ccc(NC(=O)c3c(C)c4ccccc4n3C)cc2)c(CC)c1CC(=O)O [Compound 24] | 9.9 |
| Cc1nn(Cc2ccc(NC(=O)c3cc4ccccc4o3)cc2Cl)c(C)c1CC(=O)O [Compound 5] | 0.8 |

Next, values leading:

| Ki [nM] | SMILES |
| --- | --- |
| 0.1 | CCn1c(C(=O)Nc2ccc(Cn3nc(C)c(CC(=O)O)c3C)c(F)c2)cc2ccc(F)cc21 [Compound 41] |
| 1 | Cc1nn(Cc2ccc(NC(=O)c3cc4ccccc4n3C)cc2F)c(C)c1CC(=O)O [Compound 30] |
| 0.2 | CCc1nn(Cc2ccc(NC(=O)c3cc4ccccc4n3CC)cc2)c(CC)c1CC(=O)O [Compound 22] |
| 0.4 | Cc1nn(Cc2ccc(NC(=O)c3cc4cc(F)ccc4n3C)cc2F)c(C)c1CC(=O)O [Compound 51] |
| 0.4 | CCn1c(C(=O)Nc2ccc(Cn3nc(C)c(CC(=O)O)c3C)c(F)c2)cc2c(F)cccc21 [Compound 40] |
| 0.7 | CCCc1c(C(=O)Nc2ccc(Cn3nc(C)c(CC(=O)O)c3C)c(F)c2)oc2ccc(F)cc12 [Compound 52] |
| 2.2 | Cc1nn(Cc2ccc(NC(=O)c3oc4c(Cl)cccc4c3C)cc2)c(C)c1CC(=O)O [Compound 33, (1-(4-[(7-Chloro-3-methylbenzofuran-2-carbonyl)amino]benzyl)-3,5-dimethyl-1H-pyrazol-4-yl)acetic acid] |
| 63.9 | Cc1nn(Cc2ccc(NC(=O)c3c(C)c4ccccc4n3C)cc2)c(C)c1CC(=O)O [Compound 13] |
| 0.3 | CCc1nn(Cc2ccc(NC(=O)c3cc4ccccc4n3C)cc2)c(CC)c1CC(=O)O [Compound 21] |
| 0.1 | CCCCn1c(C(=O)Nc2ccc(Cn3nc(C)c(CC(=O)O)c3C)c(F)c2)cc2cc(F)ccc21 [Compound 55] |
| 0.6 | COc1ccc2oc(C(=O)Nc3ccc(Cn4nc(C)c(CC(=O)O)c4C)cc3)cc2c1 [Compound 6] |
| 0.1 | CCCn1c(C(=O)Nc2ccc(Cn3nc(C)c(CC(=O)O)c3C)c(F)c2)cc2ccc(F)cc21 [Compound 42] |
| 2.3 | COCc1c(C(=O)Nc2ccc(Cn3nc(C)c(CC(=O)O)c3C)c(F)c2)oc2ccccc12 [Compound 43] |
| 0.3 | Cc1nn(Cc2ccc(NC(=O)c3cc4cc(Cl)ccc4o3)cc2)c(C)c1CC(=O)O [Compound 8] |
| 0.8 | Cc1nn(Cc2ccc(NC(=O)c3cc4ccccc4n3C)cc2)c(C)c1CC(=O)O [Compound 16] |
| 0.4 | Cc1nn(Cc2ccc(NC(=O)c3cc4ccc(Cl)cc4o3)cc2F)c(C)c1CC(=O)O [Compound 39] |
| 0.3 | CCc1c(C(=O)Nc2ccc(Cn3nc(C)c(CC(=O)O)c3C)cc2)oc2c(F)cccc12 [Compound 34] |
| 0.3 | CCc1c(C(=O)Nc2ccc(Cn3nc(C)c(CC(=O)O)c3C)cc2)oc2c(F)cc(F)cc12 [Compound 35] |
| < 0.1 | Cc1nn(Cc2ccc(NC(=O)c3cc4ccccc4n3Cc3ccccc3)cc2)c(C)c1CC(=O)O [Compound 18] |
| 0.4 | Cc1nn(Cc2ccc(NC(=O)c3oc4c(F)cccc4c3C)cc2F)c(C)c1CC(=O)O [Compound 50] |
| 0.2 | CCCn1c(C(=O)Nc2ccc(Cn3nc(C)c(CC(=O)O)c3C)c(F)c2)cc2cc(F)ccc21 [Compound 54] |
| 0.2 | CCn1c(C(=O)Nc2ccc(Cn3nc(C)c(CC(=O)O)c3C)c(F)c2)cc2ccccc21 [Compound 31] |
| 1.3 | Cc1nn(Cc2ccc(NC(=O)c3oc4c(F)cccc4c3C)cc2)c(C)c1CC(=O)O [Compound 7] |
| 0.2 | Cc1nn(Cc2ccc(NC(=O)c3cc4ccccc4[nH]3)cc2)c(C)c1CC(=O)O [Compound 10] |
| 0.1 | COc1ccc2oc(C(=O)Nc3ccc(Cn4nc(C)c(CC(=O)O)c4C)c(F)c3)c(C)c2c1 [Compound 49] |

Same assay, conditions: Table 2, compounds of formula Ib″; displacement of [3H]-PGD2 from CHO-K1-hCRTH2 membranes

| Ki [nM] | SMILES |
| --- | --- |
| 3.8 | Cc1nn(Cc2ccc(NC(=O)c3csc4ccccc34)cc2)c(C)c1CC(=O)O [Compound 59] |
| 8.8 | Cc1nn(Cc2ccc(NC(=O)c3coc4ccccc34)cc2)c(C)c1CC(=O)O [Compound 57] |
| 37.2 | Cc1nn(Cc2ccc(NC(=O)c3c[nH]c4ccccc34)cc2)c(C)c1CC(=O)O [Compound 58] |
